Values joined by “and” are separate entries in the source; they are usually repeats but may differ in a detail not shown here. Equal values may be shown once. Read-outs that look alike come from different tables or passages of the source.
Key:
[1] = test system: Mycobacterium smegmatis; settings: cited from earlier work
[2] = test system: eukaryotic RNAP II; settings: cited from earlier work
[3] = test system: Micrococcus luteus; settings: cited from earlier work
[4] = test system: Escherichia coli with substitutions in RNAP β′ subunit (rpoC) or β subunit (rpoB); test: MIC ratio (MIC mutant/MIC wild-type) of resistant rpoC/rpoB mutants; assay type: cell-based
Text: To identify determinants for function of Myx, Applicant has performed random mutagenesis of genes encoding Escherichia coli RNAP β′ subunit (rpoC) and β subunit (rpoB), and has isolated and sequenced five independent Myx-resistant mutants (methods as described in Mukhopadhyay, et al. (2004) Mol. Cell. 14, 739-751).
To further define determinants for function of Myx, Applicant has performed saturation mutagenesis of genes encoding Escherichia coli RNAP β′ subunit (rpoC) and β subunit (rpoB), and has isolated and sequenced more than 100 independent Myx-resistant mutants (methods as described in Mukhopadhyay, et al. (2004) Mol. Cell. 14, 739-751; Tuske, et al. […] Cell 122, 541-552). Saturation mutagenesis was performed using a set of “doped” oligodeoxyribonucleotide primers targeting all codons for residues located within 30 Å of β′ residue 345 and β residues 1275 and 1292 in the three-dimensional structure of bacterial RNAP (primer sequences in Table 2). […]

[5] = molecular target: wild-type Escherichia coli RNAP and [Arg345]β′-RNAP (Escherichia coli, UniProt P0A8T7+P0A8V2, K345R); settings: [Arg345]β′-RNAP versus wild-type RNAP; FIG. 7
[6] = test system: Escherichia coli DH21tolC; test: bacteriocidal activity; assay type: cell-based; settings: unpublished data
[7] = test system: mice; settings: at concentrations up to 100 mg/kg; cited from earlier work
[8] = test system: Enterococcus faecium; settings: cited from earlier work
[9] = molecular target: bacterial RNAP (Escherichia coli, UniProt P0A8T7+P0A8V2); settings: read-out: Ki, inhibition of bacterial RNAP; cited from earlier work
[10] = molecular target: Escherichia coli RNAP (Escherichia coli, UniProt P0A8T7+P0A8V2); assay type: biochemical
Text: (A) DNA construct SEQ ID NO:133. (B) Data.
(A) DNA construct SEQ ID NO:134. (B) Data.
Applicant has performed transcription and DNA-binding experiments in order to define the basic mechanism of transcription inhibition by Myx (methods as in Mukhopadhyay, et al. (2004) Mol. Cell. 14, 739-751).
Applicant has performed DNA binding experiments with a series of subfragments of promoter DNA in order to map the interaction of RNAP with promoter DNA inhibited by Myx (methods as in Mukhopadhyay, et al. (2004) Mol. Cell. 14, 739-751). […] This DNA segment corresponds, precisely, to the DNA segment proposed to bind within the RNAP active-center cleft, and to be affected by clamp opening and closing, in structural models of transcription initiation complexes (see Ebright (2000) J. Mol. Biol. 304, 687-698; Murakami, et al. (2003) Curr. Opin. Stuct. Biol. 12, 89-97; Borukhov & Nudler (2003) Curr. Opin. Microbiol. 6, 93-100; Murakami, et al. (2002) Science 296, 1285-1290; Naryshkin, et al. (2000) Cell 101, 601-611; Mekler, et al. (2002) Cell 108, 599-614).

[11] = test system: B. megaterium; settings: cited from earlier work
[12] = test system: Pseudomonas aeruginosa; settings: cited from earlier work
[13] = test system: Bacillus subtilis; settings: cited from earlier work
[14] = test system: Corynebacterium mediolanum; settings: cited from earlier work
[15] = molecular target: T. thermophilus RNAP holoenzyme (Thermus thermophilus, UniProt Q8RQE8+Q8RQE9); test: inhibition of T. thermophilus RNAP holoenzyme; assay type: biochemical; settings: unpublished data; read-out: K, inhibition of T. thermophilus RNAP holoenzyme
[16] = test system: Enterobacter cloacae; settings: cited from earlier work
[17] = test system: Staphylococcus aureus; settings: cited from earlier work
[18] = test system: Escherichia coli DH21tolC; settings: cited from earlier work

CCC/C(C)=C/C=C(\C)C(=O)c1c(O)cc([C@H](C)CC/C=C/NC(=O)OC)oc1=O [Myx, myxopyronin]
bacteriocidal: bacteriocidal or not [6]
≤ 10 µg/mL: MIC [1] | MIC [3] | MIC [8] | MIC [11] | MIC [12] | MIC [13] | MIC [14] | MIC [16]
1: MIC ratio (MIC, mutant/MIC, wild-type) ([4]; rpoB 1326 Leu→Trp) | MIC ratio (MIC, mutant/MIC, wild-type) ([4]; rpoC 1346 Gly→Asp)
32: MIC ratio (MIC, mutant/MIC, wild-type) ([4]; rpoB 1279 Glu→Gly) | MIC ratio (MIC, mutant/MIC, wild-type) ([4]; rpoB 1322 Ser→Pro) | MIC ratio (MIC, mutant/MIC, wild-type) ([4]; rpoC 345 Lys→Asn) | MIC ratio (MIC, mutant/MIC, wild-type) ([4]; rpoC 345 Lys→Thr)
>32: MIC ratio (MIC, mutant/MIC, wild-type) ([4]; rpoB 1275 Val→Met) | MIC ratio (MIC, mutant/MIC, wild-type) ([4]; rpoB 1275 Val→Phe) | MIC ratio (MIC, mutant/MIC, wild-type) ([4]; rpoB 1279 Glu→Lys) | MIC ratio (MIC, mutant/MIC, wild-type) ([4]; rpoC 345 Lys→Arg) | MIC ratio (MIC, mutant/MIC, wild-type) ([4]; rpoC 1351 Val→Phe)
does not inhibit: inhibition of eukaryotic RNAP II [2] | interaction of RNAP with promoter DNA segment comprising positions −40 to −12 [10]
1000 nM: Ki [9]
20000 nM: Ki [15]
reduces binding: effect of substitution within the switch-region sequence on binding of Myx to RNAP [5]
16: MIC ratio (MIC, mutant/MIC, wild-type) ([4]; rpoB 1322 Ser→Val)
preventing stable interaction: interaction of RNAP with promoter DNA [10]
no acute toxicity: acute toxicity in mice [7]
2: MIC ratio (MIC, mutant/MIC, wild-type) ([4]; rpoB 1255 Thr→Ile) | MIC ratio (MIC, mutant/MIC, wild-type) ([4]; rpoB 1278 Leu→Val) | MIC ratio (MIC, mutant/MIC, wild-type) ([4]; rpoB 1283 Ala→Val) | MIC ratio (MIC, mutant/MIC, wild-type) ([4]; rpoB 1285 Tyr→Asp) | MIC ratio (MIC, mutant/MIC, wild-type) ([4]; rpoB 1291 Leu→Phe) | MIC ratio (MIC, mutant/MIC, wild-type) ([4]; rpoB 1315 Met→Leu) | MIC ratio (MIC, mutant/MIC, wild-type) ([4]; rpoB 1317 Pro→Leu) | MIC ratio (MIC, mutant/MIC, wild-type) ([4]; rpoB 1320 Pro→Ala) | MIC ratio (MIC, mutant/MIC, wild-type) ([4]; rpoB 1322 Ser→Thr) | MIC ratio (MIC, mutant/MIC, wild-type) ([4]; rpoB 1322 Ser→Tyr) | MIC ratio (MIC, mutant/MIC, wild-type) ([4]; rpoB 1325 Val→Leu) | MIC ratio (MIC, mutant/MIC, wild-type) ([4]; rpoC 1352 Ile→Asn) | MIC ratio (MIC, mutant/MIC, wild-type) ([4]; rpoC 1352 Ile→Ser) | MIC ratio (MIC, mutant/MIC, wild-type) ([4]; rpoC 1354 Gly→Cys)
inhibits: interaction of RNAP with segment of promoter DNA comprising positions −11 to +15 [10]
4 and 2: MIC ratio (MIC, mutant/MIC, wild-type) ([4]; rpoB 1298 Val→Leu)

C/C(=C\Cc1ccccc1)CCC(=O)C[C@H]1C[C@H](O)C/C(C)=C/C/C=C/C/C(CC(=O)O)=C\C(=O)O1 [Rip, ripostatin]
300 nM: Ki [9]
same mechanism as Myx: effects on transcription, promoter binding, and promoter-subfragment binding ([10]; results not shown)
does not inhibit: inhibition of eukaryotic RNAP II [2]
4: MIC ratio (MIC, mutant/MIC, wild-type) ([4]; rpoB 1255 Thr→Ile) | MIC ratio (MIC, mutant/MIC, wild-type) ([4]; rpoB 1279 Glu→Lys) | MIC ratio (MIC, mutant/MIC, wild-type) ([4]; rpoB 1283 Ala→Val) | MIC ratio (MIC, mutant/MIC, wild-type) ([4]; rpoB 1285 Tyr→Asp) | MIC ratio (MIC, mutant/MIC, wild-type) ([4]; rpoB 1291 Leu→Phe) | MIC ratio (MIC, mutant/MIC, wild-type) ([4]; rpoB 1298 Val→Leu) | MIC ratio (MIC, mutant/MIC, wild-type) ([4]; rpoB 1315 Met→Leu) | MIC ratio (MIC, mutant/MIC, wild-type) ([4]; rpoB 1320 Pro→Ala) | MIC ratio (MIC, mutant/MIC, wild-type) ([4]; rpoB 1322 Ser→Thr) | MIC ratio (MIC, mutant/MIC, wild-type) ([4]; rpoB 1325 Val→Leu) | MIC ratio (MIC, mutant/MIC, wild-type) ([4]; rpoC 1346 Gly→Asp) | MIC ratio (MIC, mutant/MIC, wild-type) ([4]; rpoC 1354 Gly→Cys)
>16: MIC ratio (MIC, mutant/MIC, wild-type) ([4]; rpoB 1275 Val→Phe) | MIC ratio (MIC, mutant/MIC, wild-type) ([4]; rpoB 1278 Leu→Val) | MIC ratio (MIC, mutant/MIC, wild-type) ([4]; rpoB 1279 Glu→Gly) | MIC ratio (MIC, mutant/MIC, wild-type) ([4]; rpoB 1322 Ser→Pro) | MIC ratio (MIC, mutant/MIC, wild-type) ([4]; rpoB 1322 Ser→Val) | MIC ratio (MIC, mutant/MIC, wild-type) ([4]; rpoB 1326 Leu→Trp) | MIC ratio (MIC, mutant/MIC, wild-type) ([4]; rpoC 345 Lys→Arg) | MIC ratio (MIC, mutant/MIC, wild-type) ([4]; rpoC 345 Lys→Thr) | MIC ratio (MIC, mutant/MIC, wild-type) ([4]; rpoC 1351 Val→Phe) | MIC ratio (MIC, mutant/MIC, wild-type) ([4]; rpoC 1352 Ile→Asn) | MIC ratio (MIC, mutant/MIC, wild-type) ([4]; rpoC 1352 Ile→Ser)
2: MIC ratio (MIC, mutant/MIC, wild-type) ([4]; rpoB 1317 Pro→Leu) | MIC ratio (MIC, mutant/MIC, wild-type) ([4]; rpoB 1322 Ser→Tyr)
≤ 1 µg/mL: MIC [17] | MIC [18]
bacteriocidal: bacteriocidal or not [6]
8: MIC ratio (MIC, mutant/MIC, wild-type) ([4]; rpoB 1275 Val→Met) | MIC ratio (MIC, mutant/MIC, wild-type) ([4]; rpoC 345 Lys→Asn)

C/C=C/C/C=C(\C)C(O)CC/C(C)=C/C=C(\C)C(=O)c1c(O)cc([C@H](C)CC/C=C/NC(=O)OC)oc1=O (some centres unmarked) [Cor, corallopyronin]
same mechanism as Myx: effects on transcription, promoter binding, and promoter-subfragment binding [10]
>8: MIC ratio (MIC, mutant/MIC, wild-type) ([4]; rpoB 1275 Val→Met) | MIC ratio (MIC, mutant/MIC, wild-type) ([4]; rpoB 1275 Val→Phe) | MIC ratio (MIC, mutant/MIC, wild-type) ([4]; rpoB 1326 Leu→Trp) | MIC ratio (MIC, mutant/MIC, wild-type) ([4]; rpoC 345 Lys→Arg) | MIC ratio (MIC, mutant/MIC, wild-type) ([4]; rpoC 1351 Val→Phe)
≤ 10 µg/mL: MIC [3] | MIC [18] | MIC [11] | MIC [13] | MIC [14]
bacteriocidal: bacteriocidal or not [6]
8: MIC ratio (MIC, mutant/MIC, wild-type) ([4]; rpoB 1279 Glu→Lys) | MIC ratio (MIC, mutant/MIC, wild-type) ([4]; rpoB 1322 Ser→Val) | MIC ratio (MIC, mutant/MIC, wild-type) ([4]; rpoC 345 Lys→Asn) | MIC ratio (MIC, mutant/MIC, wild-type) ([4]; rpoC 345 Lys→Thr)
does not inhibit: inhibition of eukaryotic RNAP II [2]
2: MIC ratio (MIC, mutant/MIC, wild-type) ([4]; rpoB 1298 Val→Leu) | MIC ratio (MIC, mutant/MIC, wild-type) ([4]; rpoB 1315 Met→Leu) | MIC ratio (MIC, mutant/MIC, wild-type) ([4]; rpoB 1317 Pro→Leu) | MIC ratio (MIC, mutant/MIC, wild-type) ([4]; rpoC 1354 Gly→Cys)
4: MIC ratio (MIC, mutant/MIC, wild-type) ([4]; rpoB 1255 Thr→Ile) | MIC ratio (MIC, mutant/MIC, wild-type) ([4]; rpoB 1278 Leu→Val) | MIC ratio (MIC, mutant/MIC, wild-type) ([4]; rpoB 1279 Glu→Gly) | MIC ratio (MIC, mutant/MIC, wild-type) ([4]; rpoB 1283 Ala→Val) | MIC ratio (MIC, mutant/MIC, wild-type) ([4]; rpoB 1320 Pro→Ala) | MIC ratio (MIC, mutant/MIC, wild-type) ([4]; rpoB 1322 Ser→Pro) | MIC ratio (MIC, mutant/MIC, wild-type) ([4]; rpoB 1322 Ser→Thr) | MIC ratio (MIC, mutant/MIC, wild-type) ([4]; rpoB 1322 Ser→Tyr) | MIC ratio (MIC, mutant/MIC, wild-type) ([4]; rpoB 1325 Val→Leu) | MIC ratio (MIC, mutant/MIC, wild-type) ([4]; rpoC 1346 Gly→Asp) | MIC ratio (MIC, mutant/MIC, wild-type) ([4]; rpoC 1352 Ile→Asn) | MIC ratio (MIC, mutant/MIC, wild-type) ([4]; rpoC 1352 Ile→Ser)
1: MIC ratio (MIC, mutant/MIC, wild-type) ([4]; rpoB 1285 Tyr→Asp) | MIC ratio (MIC, mutant/MIC, wild-type) ([4]; rpoB 1291 Leu→Phe)
4000 nM: Ki [9]

From patent publication US8114583B2, “Switch-region: target and method for inhibition of bacterial RNA polymerase” (priority 2005, dated 2012)
